Measurements from patent publication US20250320206A1, “STAT6 DEGRADERS” (Gilead Sciences, Inc., priority 2024, published 2025).
pEC50: −log10 of the molar value.

How the values were obtained:
[1] = test system: Eotaxin-3 release in human whole blood stimulated with IL-4; assay: Human Whole Blood Eotaxin-3 Assay (IL-4 stimulated eotaxin-3 release); format: cell-based; details: IL-4 stimulation, 48 h, values given for compounds with >80% Emax, geometric mean
Procedure, shortened: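 Lithium-heparin human whole blood preincubated 2 h at 37° C with 4-fold serially diluted compounds (0.5% DMSO), then stimulated with recombinant human IL-4 ([…]) for 48 h. Eotaxin-3 (CCL26) in supernatant quantified by MSD immunoassay.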

STAT6 = biological target: T1, STAT6 (Homo sapiens, UniProt P42226); assay: Stat6 Degrader Assay (HiBiT based, HeLa LgBiT clone 4.14); format: cell-based; details: HeLa LgBiT clone 4.14 HiBiT-STAT6, 4-24 h incubation; values given for compounds with >80% Emax; geometric mean; read-out: STAT6 degradation DC50
T1 construct: These cells express endogenous STAT6; host or cells: HeLa LgBiT clone 4.14
T1 sequence (P42226 1-847): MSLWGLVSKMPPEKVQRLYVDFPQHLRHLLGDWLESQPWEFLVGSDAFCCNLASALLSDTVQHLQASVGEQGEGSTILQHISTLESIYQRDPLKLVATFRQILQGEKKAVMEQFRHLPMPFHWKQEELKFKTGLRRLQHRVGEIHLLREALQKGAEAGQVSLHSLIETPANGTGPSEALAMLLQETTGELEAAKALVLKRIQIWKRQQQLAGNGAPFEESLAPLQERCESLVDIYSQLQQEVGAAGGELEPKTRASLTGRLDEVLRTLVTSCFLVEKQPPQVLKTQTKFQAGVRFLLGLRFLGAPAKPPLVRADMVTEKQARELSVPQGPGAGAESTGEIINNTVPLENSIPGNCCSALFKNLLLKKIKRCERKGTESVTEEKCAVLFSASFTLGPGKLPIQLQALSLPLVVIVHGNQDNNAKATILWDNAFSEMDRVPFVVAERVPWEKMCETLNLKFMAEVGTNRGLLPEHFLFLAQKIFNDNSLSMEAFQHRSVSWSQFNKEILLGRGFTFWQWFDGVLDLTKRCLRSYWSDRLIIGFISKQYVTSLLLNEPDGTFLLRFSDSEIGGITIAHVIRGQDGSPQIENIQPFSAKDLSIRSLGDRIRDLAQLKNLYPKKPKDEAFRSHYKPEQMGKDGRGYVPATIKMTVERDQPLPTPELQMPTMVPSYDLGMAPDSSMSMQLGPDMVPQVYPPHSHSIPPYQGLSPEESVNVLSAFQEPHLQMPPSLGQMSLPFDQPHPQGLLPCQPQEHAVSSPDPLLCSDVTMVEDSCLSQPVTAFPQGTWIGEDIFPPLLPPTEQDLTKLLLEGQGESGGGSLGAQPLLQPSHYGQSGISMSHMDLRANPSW
Procedure, shortened: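 HeLa LgBiT clone 4.14 cells with CRISPR HiBiT-tagged endogenous STAT6, 5000 cells/well, compound dosed then incubated 4-24 h at 37° C, 5% CO2. Nano-Glo substrate added, 0.5 h, luminescence read as non-degraded STAT6. Terfenadine 50 μM (cell kill) defines 100% degradation.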

SMILES	pEC50 [1]	DC50 (STAT6) [nM]
CNc1cc(=O)n(-c2ccnc3c2cc([C@H](C)N2CC=C(c4c(C)cc(C(=O)N(C)c5ccc(C6CCN(Cc7ccc8c(c7)C(C)(C)C(=O)N8C7CCC(=O)NC7=O)CC6)cc5)cc4F)CC2)n3C)cc1F (stereo partly drawn) [Example 3u233, N-(4-(1-((1-(2,6-dioxopiperidin-3-yl)-3,3-dimethyl-2-oxoindolin-5-yl)methyl)piperidin-4-yl)phenyl)-3-fluoro-4-(1-((S)-1-(4-(5-fluoro-4-(methylamino)-2-oxopyridin-1 (2H)-yl)-1-methyl-1H-pyrrolo[2,3-b]pyridin-2-yl)ethyl)-1,2,3,6-tetrahydropyridin-4-yl)-N,5-dimethylbenzamide]	8.89	0.2
CNc1cc(=O)n(-c2ccnc3c2cc([C@H](C)N2CC=C(c4c(C)cc(C(=O)N(C)c5ccc(N6CCN(Cc7ccc8c(c7)n(C)c(=O)n8C7CCC(=O)NC7=O)CC6)nc5)cc4F)CC2)n3C)cc1F (stereo partly drawn) [Example 3u237, N-(6-(4-((1-(2,6-dioxopiperidin-3-yl)-3-methyl-2-oxo-2,3-dihydro-1H-benzo[d]-imidazol-5-yl)methyl)piperazin-1-yl)pyridin-3-yl)-3-fluoro-4-(1-((S)-1-(4-(5-fluoro-4-(methylamino)-2-oxopyridin-1 (2H)-yl)-1-methyl-1H-pyrrolo[2,3-b]pyridin-2-yl)ethyl)-1,2,3,6-tetrahydropyridin-4-yl)-N,5-dimethylbenzamide]	8.77	0.1
CNc1ccn(-c2ccnc3c2cc([C@H](C)N2CC=C(c4c(C)cc(C(=O)N(C)C5CCC(N6CCN(Cc7ccc8c(c7)n(C)c(=O)n8C7CCC(=O)NC7=O)CC6)CC5)cc4F)CC2)n3C)c(=O)c1 (stereo partly drawn) [Example 3u238, N-(4-(4-((1-(2,6-dioxopiperidin-3-yl)-3-methyl-2-oxo-2,3-dihydro-1H-benzo[d]-imidazol-5-yl)methyl)piperazin-1-yl)cyclohexyl)-3-fluoro-N,5-dimethyl-4-(1-((S)-1-(1-methyl-4-(4-(methylamino)-2-oxopyridin-1 (2H)-yl)-1H-pyrrolo[2,3-b]pyridin-2-yl)ethyl)-1,2,3,6-tetrahydropyridin-4-yl)benzamide]	8.49	1.4
CNc1cc(=O)n(-c2ccnc3c2cc([C@H](C)N2CC=C(c4c(C)cc(C(=O)N(C)c5ccc(N6CCN(Cc7ccc8c(c7)C7(CC7)C(=O)N8C7CCC(=O)NC7=O)CC6)nc5)cc4F)CC2)n3C)cc1F (stereo partly drawn) [Example 3u239, N-(6-(4-((1′-(2,6-dioxopiperidin-3-yl)-2′-oxospiro[cyclopropane-1,3′-indolin]-5′-yl)-methyl)piperazin-1-yl)pyridin-3-yl)-3-fluoro-4-(1-((S)-1-(4-(5-fluoro-4-(methylamino)-2-oxopyridin-1 (2H)-yl)-1-methyl-1H-pyrrolo[2,3-b]pyridin-2-yl)ethyl)-1,2,3,6-tetrahydropyridin-4-yl)-N,5-dimethyl-benzamide]	8.92	0.1
CNc1cc(=O)n(-c2ccnc3c2cc([C@H](C)N2CC=C(c4c(C)cc(C(=O)N(C)c5ccc(N6CCC(O)(Cc7ccc8c(c7)C7(CC7)C(=O)N8C7CCC(=O)NC7=O)CC6)nc5)cc4F)CC2)n3C)cc1F (stereo partly drawn) [Example 3u240, N-(6-(4-((1′-(2,6-dioxopiperidin-3-yl)-2′-oxospiro[cyclopropane-1,3′-indolin]-5′-yl)methyl)-4-hydroxypiperidin-1-yl)pyridin-3-yl)-3-fluoro-4-(1-((S)-1-(4-(5-fluoro-4-(methylamino)-2-oxopyridin-1 (2H)-yl)-1-methyl-1H-pyrrolo[2,3-b]pyridin-2-yl)ethyl)-1,2,3,6-tetrahydropyridin-4-yl)-N,5-dimethylbenzamide]	8.89	1.1

Further compounds by rising pEC50 [1], results first:

pEC50 [1]	DC50 (STAT6) [nM]	SMILES
8.92	0.2	CNc1ccn(-c2ccnc3c2cc(CN2CC=C(c4c(C)cc(C(=O)N(C)c5ccc(C6CCN(Cc7ccc8c(c7)C(C)(C)C(=O)N8C7CCC(=O)NC7=O)CC6)cc5)cc4F)CC2)n3C)c(=O)c1 (stereo not shown) [Example 3u228, N-(4-(1-((1-(2,6-dioxopiperidin-3-yl)-3,3-dimethyl-2-oxoindolin-5-yl)methyl)-piperidin-4-yl)phenyl)-3-fluoro-N,5-dimethyl-4-(1-((1-methyl-4-(4-(methylamino)-2-oxopyridin-1 (2H)-yl)-1H-pyrrolo[2,3-b]pyridin-2-yl)methyl)-1,2,3,6-tetrahydropyridin-4-yl)benzamide]
8.96	1.5	CNc1ccn(-c2ccnc3c2cc(CN2CCC(c4c(F)cc(C(=O)N5CCC(CN6CCN(Cc7ccc8c(c7)C7(CC7)C(=O)N8C7CCC(=O)NC7=O)C[C@@H]6C)CC5)cc4F)CC2)n3C)c(=O)c1 (stereo partly drawn) [Example 3u222, 3-(5′-(((S)-4-((1-(3,5-difluoro-4-(1-((1-methyl-4-(4-(methylamino)-2-oxopyridin-1 (2H)-yl)-1H-pyrrolo[2,3-b]pyridin-2-yl)methyl)piperidin-4-yl)benzoyl)piperidin-4-yl)methyl)-3-methylpiperazin-1-yl)methyl)-2′-oxospiro[cyclopropane-1,3′-indolin]-1′-yl)piperidine-2,6-dione]
9.05	0.1	CNc1cc(=O)n(-c2ccnc3c2cc([C@H](C)N2CC=C(c4c(C)cc(C(=O)N(C)c5ccc(C6CCN(Cc7ccc8c(c7)C7(CC7)C(=O)N8C7CCC(=O)NC7=O)CC6)cc5)cc4F)CC2)n3C)cc1F (stereo partly drawn) [Example 3u236, N-(4-(1-((1′-(2,6-dioxopiperidin-3-yl)-2′-oxospiro[cyclopropane-1,3′-indolin]-5′-yl)methyl)piperidin-4-yl)phenyl)-3-fluoro-4-(1-((S)-1-(4-(5-fluoro-4-(methylamino)-2-oxopyridin-1 (2H)-yl)-1-methyl-1H-pyrrolo[2,3-b]pyridin-2-yl)ethyl)-1,2,3,6-tetrahydropyridin-4-yl)-N,5-dimethylbenzamide]
9.10	0.1	CNc1ccn(-c2ccnc3c2cc([C@H](C)N2CC=C(c4c(C)cc(C(=O)N(C)c5ccc(C6CCN(Cc7ccc8c(c7)n(C)c(=O)n8C7CCC(=O)NC7=O)CC6)nc5)cc4F)CC2)n3C)c(=O)c1 (stereo partly drawn) [Example 3u231, N-(6-(1-((1-(2,6-dioxopiperidin-3-yl)-3-methyl-2-oxo-2,3-dihydro-1H-benzo[d]-imidazol-5-yl)methyl)piperidin-4-yl)pyridin-3-yl)-3-fluoro-N,5-dimethyl-4-(1-((S)-1-(1-methyl-4-(4-(methylamino)-2-oxopyridin-1 (2H)-yl)-1H-pyrrolo[2,3-b]pyridin-2-yl)ethyl)-1,2,3,6-tetrahydropyridin-4-yl)benzamide]
9.10	0.1	CNc1ccn(-c2ccnc3c2cc([C@H](C)N2CC=C(c4c(C)cc(C(=O)N(C)c5ccc(C6CCN(Cc7ccc8c(c7)C(C)(C)C(=O)N8C7CCC(=O)NC7=O)CC6)cc5)cc4F)CC2)n3C)c(=O)c1 (stereo partly drawn) [Example 3u232, N-(4-(1-((1-(2,6-dioxopiperidin-3-yl)-3,3-dimethyl-2-oxoindolin-5-yl)methyl)-piperidin-4-yl)phenyl)-3-fluoro-N,5-dimethyl-4-(1-((S)-1-(1-methyl-4-(4-(methylamino)-2-oxopyridin-1 (2H)-yl)-1H-pyrrolo[2,3-b]pyridin-2-yl)ethyl)-1,2,3,6-tetrahydropyridin-4-yl)benzamide]
9.52	0.1	CNc1ccn(-c2ccnc3c2cc([C@H](C)N2CC=C(c4c(C)cc(C(=O)N(C)c5ccc(C6CCN(Cc7ccc8c(c7)n(C)c(=O)n8C7CCC(=O)NC7=O)CC6)cc5)cc4F)CC2)n3C)c(=O)c1 (stereo partly drawn) [Example 3u225, N-(4-(1-((1-(2,6-dioxopiperidin-3-yl)-3-methyl-2-oxo-2,3-dihydro-1H-benzo[d]-imidazol-5-yl)methyl)piperidin-4-yl)phenyl)-3-fluoro-N,5-dimethyl-4-(1-((S)-1-(1-methyl-4-(4-(methyl-amino)-2-oxopyridin-1 (2H)-yl)-1H-pyrrolo[2,3-b]pyridin-2-yl)ethyl)-1,2,3,6-tetrahydropyridin-4-yl)-benzamide]
